We go through ten molecules from ChEMBL document CHEMBL1131894, “N-phenylalkyl-substituted tropane analogs of boat conformation with high selectivity for the dopamine versus serotonin transporter” (Bioorg Med Chem Lett, 1999).

Test [1] deals with Sodium-dependent serotonin transporter (Rattus norvegicus, UniProt P31652). Put plainly: Inhibition of [3H]5-HT uptake at striatal nerve endings by serotonin transporter.
For test [2], the target named is T1, Sodium-dependent dopamine transporter (Rattus norvegicus, UniProt P23977). Put plainly: Inhibition of [3H]dopamine uptake at striatal nerve endings by dopamine transporter.
T1 sequence (P23977 whole entry): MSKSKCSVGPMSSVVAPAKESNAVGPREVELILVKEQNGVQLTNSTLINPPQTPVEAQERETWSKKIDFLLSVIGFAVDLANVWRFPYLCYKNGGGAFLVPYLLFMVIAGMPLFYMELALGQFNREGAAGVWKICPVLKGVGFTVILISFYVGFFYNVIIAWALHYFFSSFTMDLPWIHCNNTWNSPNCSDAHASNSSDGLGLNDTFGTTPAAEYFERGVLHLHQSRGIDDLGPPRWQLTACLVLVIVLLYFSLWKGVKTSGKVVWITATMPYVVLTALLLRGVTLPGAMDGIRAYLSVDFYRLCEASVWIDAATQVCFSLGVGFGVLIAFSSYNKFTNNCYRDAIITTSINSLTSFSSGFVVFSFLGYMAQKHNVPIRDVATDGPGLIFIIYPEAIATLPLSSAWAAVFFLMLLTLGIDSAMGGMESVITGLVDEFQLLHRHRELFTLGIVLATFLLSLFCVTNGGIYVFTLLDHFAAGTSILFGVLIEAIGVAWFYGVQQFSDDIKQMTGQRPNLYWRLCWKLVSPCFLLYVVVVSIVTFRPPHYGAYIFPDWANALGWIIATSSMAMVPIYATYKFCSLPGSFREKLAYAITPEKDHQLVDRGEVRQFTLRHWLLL
Test [3] concerns the target T1, Sodium-dependent dopamine transporter. The test can be described thus: Displacement of [3H]mazindol from cocaine binding site on Dopamine transporter (DAT). A general note: In a radioligand displacement assay an active substance lowers the binding of a labelled ligand.
Test [4] can be described thus: Selectivity of uptake of 5-HT to DA. It is filed as functional.

Sequence of Sodium-dependent serotonin transporter (P31652 whole entry): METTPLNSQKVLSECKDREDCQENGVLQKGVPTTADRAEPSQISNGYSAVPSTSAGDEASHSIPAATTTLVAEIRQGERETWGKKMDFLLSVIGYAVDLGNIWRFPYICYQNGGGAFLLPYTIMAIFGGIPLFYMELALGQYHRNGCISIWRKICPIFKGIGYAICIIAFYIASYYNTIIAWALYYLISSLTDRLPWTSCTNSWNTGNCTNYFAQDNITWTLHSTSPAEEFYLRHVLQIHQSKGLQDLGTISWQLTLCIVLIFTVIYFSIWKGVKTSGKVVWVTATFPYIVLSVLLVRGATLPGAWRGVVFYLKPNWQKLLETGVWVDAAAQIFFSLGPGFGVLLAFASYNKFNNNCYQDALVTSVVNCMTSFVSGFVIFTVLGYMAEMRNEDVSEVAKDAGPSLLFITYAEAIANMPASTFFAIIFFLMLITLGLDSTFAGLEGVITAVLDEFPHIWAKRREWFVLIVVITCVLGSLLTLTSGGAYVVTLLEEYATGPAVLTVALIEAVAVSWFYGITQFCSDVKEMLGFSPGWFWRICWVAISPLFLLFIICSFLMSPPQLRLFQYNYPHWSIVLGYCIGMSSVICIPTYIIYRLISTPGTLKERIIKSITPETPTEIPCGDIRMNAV

On to `Fc1ccc(C2C3CCC(C[C@H]2c2ccc(F)cc2)N3)cc1` (some centres undefined), for which the Ki turned out to be 41 nM in test [1], 17 nM in test [2] and 49 nM in test [3]. The molecule further had a Selectivity in test [4] of 2.4.
For `Cc1ccc([C@@H]2C[C@H]3CCC(C2c2ccccc2)N3CCc2ccccc2)cc1` (some centres undefined) the same measures were 180 nM, 1.6 nM, 0.95 nM and 113.
Consider `Fc1ccc(OCCN2C3CC[C@@H]2C[C@@H](c2ccc(F)cc2)C3c2ccc(F)cc2)cc1` (some centres undefined), for which the Ki stood at 928 nM in test [1], 27 nM in test [2] and 22 nM in test [3]. This molecule displayed a Selectivity in test [4] of 34.
`Fc1ccc(C2C3CC[C@H](C[C@H]2c2ccc(F)cc2)N3CCc2ccccc2)cc1` (some centres undefined): the inhibition constant (Ki) in test [1] was more than 1.3 nM; in test [2] it was 26 nM; in test [3], 10 nM. Also, the Selectivity in test [4] was more than 50.
For `Fc1ccc(C2C3CC[C@H](C[C@H]2c2ccc(F)cc2)N3CCCCc2ccccc2)cc1` (some centres undefined) the same measures were 110 nM, 210 nM, 86.4 nM and 0.52.
For `CN1C2CC[C@@H]1C[C@@H](c1ccc(F)cc1)C2c1ccc(F)cc1` (some centres undefined) the same measures were 460 nM, 14 nM, 31 nM and 33.
As for `Fc1ccc(C2C3CC[C@H](C[C@H]2c2ccc(F)cc2)N3CCC(c2ccccc2)c2ccccc2)cc1` (some centres undefined), the inhibition constant Ki was more than 20000 nM in test [1], more than 10000 nM in test [2] and more than 7000 nM in test [3].
In the case of `Cc1ccc([C@@H]2C[C@H]3CCC(C2c2ccccc2)N3C)cc1` (some centres undefined), the inhibition constant (Ki) came out at 120 nM in test [1], 4.6 nM in test [2] and 6 nM in test [3]. Further, in test [4], the Selectivity amounted to 26.
In the case of `Fc1ccc(C2C3CC[C@H](C[C@H]2c2ccc(F)cc2)N3CCCc2ccccc2)cc1` (some centres undefined), the Ki in test [1] amounted to 608 nM; in test [2], 43 nM; in test [3] it was 16 nM. In test [4], this molecule had a Selectivity of 14.
For `Fc1ccc(C2C3CC[C@H](C[C@H]2c2ccc(F)cc2)N3Cc2ccccc2)cc1` (some centres undefined) the same measures were 490 nM, 170 nM, 260 nM and 2.9.

As a reminder, the Ki is a measure of affinity in units of concentration, obtained from inhibition or displacement. High values mean a looser hold on the target, low ones a stronger hold on the target.
